Test results from PMC10266688 (PLOS ONE, 2023).
Where “and” joins values, the source holds several entries; their conditions need not be identical. Identical values can stand only once. Like-named read-outs stand apart in the source and are kept apart here.

Assay: Single administration dose escalation study (MTD, body weight, clinical observations), female CD1 mice
Assay type: in vivo
Settings: for Body weight change, Mean / Body weight change: day 7 vs initial weight; for Body weight change, Mean: group mean; for MTD at 7 days: mouse, in vivo, female CD1 mice
Procedure: Mice were dosed on day 1 and clinical condition recorded at 0.5 h, 2 h, 4 h, 6 h, and days 1–7 (S6 Table).
Gc - general condition observation
X - treatment with compound or vehicle

**Q.** For N#Cc1ccc(/C=C2/C(=O)/C(=C/c3ccc(C#N)cc3)C23CCNCC3)cc1 [Up284], which Body weight (IV 60 mg/kg single dose, day 3, individual mice, 60 mg/kg) is on record?
**A.** 26.5 g and 23.7 g and 24.0 g

**Q.** And the “Body weight, Mean” value (IV 60 mg/kg single dose, day 4, group mean)?
**A.** 24.93 g

**Q.** And the Body weight (IV 60 mg/kg single dose, day 4, individual mice, 60 mg/kg)?
**A.** 26.6 g and 23.5 g and 24.7 g

**Q.** What about the “Body weight, Mean” value (IV 60 mg/kg single dose, day 5, group mean) of the same compound?
**A.** 24.83 g

**Q.** And the Body weight (IV 60 mg/kg single dose, day 5, individual mice, 60 mg/kg)?
**A.** 26.5 g and 23.3 g and 24.7 g

**Q.** And the “Body weight, Mean” value (IV 60 mg/kg single dose, day 6, group mean)?
**A.** 25.30 g

**Q.** What about the Body weight (IV 60 mg/kg single dose, day 6, individual mice, 60 mg/kg) of the same compound?
**A.** 26.7 g and 24.1 g and 25.1 g

**Q.** What about the “Body weight, Mean” value (IV 60 mg/kg single dose, day 7, group mean) of the same compound?
**A.** 25.27 g

**Q.** And the Body weight (IV 60 mg/kg single dose, day 7, individual mice, 60 mg/kg)?
**A.** 26.6 g and 23.9 g and 25.3 g

**Q.** What about the “Body weight change, Mean” value (IV 60 mg/kg single dose) of the same compound?
**A.** 3.48%

**Q.** What about the Body weight change (IV 60 mg/kg single dose, individual mice, 60 mg/kg) of the same compound?
**A.** 2.31% and 5.29% and 2.85%

**Q.** And the Clinical observation (IV 60 mg/kg, day 0, 0.5 h, individual mice, 60 mg/kg)?
**A.** 0

**Q.** And the Clinical observation (IV 60 mg/kg, day 0, 2 h, individual mice)?
**A.** 0

**Q.** What about the Clinical observation (IV 60 mg/kg, day 0, 4 h, individual mice) of the same compound?
**A.** 0

**Q.** And the Clinical observation (IV 60 mg/kg, day 0, 6 h, individual mice)?
**A.** 0

**Q.** What about the Clinical observation (IV 60 mg/kg, day 0, time 0, individual mice) of the same compound?
**A.** 0

**Q.** And the Clinical observation (IV 60 mg/kg, day 1, individual mice)?
**A.** 0

**Q.** What about the Clinical observation (IV 60 mg/kg, day 2, individual mice) of the same compound?
**A.** 0

**Q.** And the Clinical observation (IV 60 mg/kg, day 3, individual mice)?
**A.** 0

**Q.** What about the Clinical observation (IV 60 mg/kg, day 4, individual mice) of the same compound?
**A.** 0

**Q.** What about the Clinical observation (IV 60 mg/kg, day 5, individual mice) of the same compound?
**A.** 0

**Q.** What about the Clinical observation (IV 60 mg/kg, day 6, individual mice) of the same compound?
**A.** 0

**Q.** And the Clinical observation (IV 60 mg/kg, day 7, individual mice)?
**A.** 0

**Q.** What about the “Body weight, Mean” value (PO 100 mg/kg single dose, day 0, group mean) of the same compound?
**A.** 24.70 g

**Q.** What about the Body weight (PO 100 mg/kg single dose, day 0, individual mice, 100 mg/kg) of the same compound?
**A.** 27.5 g and 24.7 g and 21.9 g

**Q.** What about the “Body weight, Mean” value (PO 100 mg/kg single dose, day 1, group mean) of the same compound?
**A.** 24.30 g

**Q.** What about the Body weight (PO 100 mg/kg single dose, day 1, individual mice, 100 mg/kg) of the same compound?
**A.** 26.4 g and 24.4 g and 22.1 g

**Q.** And the “Body weight, Mean” value (PO 100 mg/kg single dose, day 2, group mean)?
**A.** 24.77 g

**Q.** And the Body weight (PO 100 mg/kg single dose, day 2, individual mice, 100 mg/kg)?
**A.** 27.0 g and 24.5 g and 22.8 g

**Q.** And the “Body weight, Mean” value (PO 100 mg/kg single dose, day 3, group mean)?
**A.** 25.10 g

**Q.** And the Body weight (PO 100 mg/kg single dose, day 3, individual mice, 100 mg/kg)?
**A.** 27.2 g and 25.0 g and 23.1 g

**Q.** And the “Body weight, Mean” value (PO 100 mg/kg single dose, day 4, group mean)?
**A.** 25.30 g

**Q.** What about the Body weight (PO 100 mg/kg single dose, day 4, individual mice, 100 mg/kg) of the same compound?
**A.** 27.9 g and 24.5 g and 23.5 g

**Q.** What about the “Body weight, Mean” value (PO 100 mg/kg single dose, day 5, group mean) of the same compound?
**A.** 24.77 g

**Q.** And the Body weight (PO 100 mg/kg single dose, day 5, individual mice, 100 mg/kg)?
**A.** 26.9 g and 24.4 g and 23.0 g

**Q.** And the “Body weight, Mean” value (PO 100 mg/kg single dose, day 6, group mean)?
**A.** 25.50 g

**Q.** What about the Body weight (PO 100 mg/kg single dose, day 6, individual mice, 100 mg/kg) of the same compound?
**A.** 28.4 g and 25.0 g and 23.1 g

**Q.** And the “Body weight, Mean” value (PO 100 mg/kg single dose, day 7, group mean)?
**A.** 26.10 g

**Q.** And the Body weight (PO 100 mg/kg single dose, day 7, individual mice, 100 mg/kg)?
**A.** 29.3 g and 25.6 g and 23.4 g

**Q.** What about the “Body weight change, Mean” value (PO 100 mg/kg single dose) of the same compound?
**A.** 5.68%

**Q.** And the Body weight change (PO 100 mg/kg single dose, individual mice, 100 mg/kg)?
**A.** 6.55% and 3.64%

**Q.** What about the Clinical observation (PO 100 mg/kg, day 0, 0.5 h, individual mice) of the same compound?
**A.** 0

**Q.** And the Clinical observation (PO 100 mg/kg, day 0, 2 h, individual mice)?
**A.** 0

**Q.** And the Clinical observation (PO 100 mg/kg, day 0, 4 h, individual mice)?
**A.** 0

**Q.** What about the Clinical observation (PO 100 mg/kg, day 0, 6 h, individual mice) of the same compound?
**A.** 0

**Q.** And the Clinical observation (PO 100 mg/kg, day 0, time 0, individual mice)?
**A.** 0

**Q.** What about the Clinical observation (PO 100 mg/kg, day 1, individual mice) of the same compound?
**A.** 0

**Q.** What about the Clinical observation (PO 100 mg/kg, day 2, individual mice) of the same compound?
**A.** 0

**Q.** And the Clinical observation (PO 100 mg/kg, day 3, individual mice)?
**A.** 0

**Q.** What about the Clinical observation (PO 100 mg/kg, day 4, individual mice) of the same compound?
**A.** 0

**Q.** And the Clinical observation (PO 100 mg/kg, day 5, individual mice)?
**A.** 0

**Q.** And the Clinical observation (PO 100 mg/kg, day 6, individual mice)?
**A.** 0

**Q.** And the Clinical observation (PO 100 mg/kg, day 7, individual mice)?
**A.** 0

**Q.** And the “Body weight, Mean” value (PO 200 mg/kg single dose, day 0, group mean)?
**A.** 24.70 g

**Q.** And the “Body weight, Mean” value (PO 200 mg/kg single dose, day 1, group mean)?
**A.** 24.90 g

**Q.** And the “Body weight, Mean” value (PO 200 mg/kg single dose, day 2, group mean)?
**A.** 25.17 g

**Q.** What about the “Body weight, Mean” value (PO 200 mg/kg single dose, day 3, group mean) of the same compound?
**A.** 25.07 g

**Q.** And the “Body weight, Mean” value (PO 200 mg/kg single dose, day 4, group mean)?
**A.** 25.40 g

**Q.** What about the “Body weight, Mean” value (PO 200 mg/kg single dose, day 5, group mean) of the same compound?
**A.** 25.33 g

**Q.** And the “Body weight, Mean” value (PO 200 mg/kg single dose, day 6, group mean)?
**A.** 25.63 g

**Q.** What about the “Body weight, Mean” value (PO 200 mg/kg single dose, day 7, group mean) of the same compound?
**A.** 25.87 g

**Q.** What about the Body weight (PO 200 mg/kg single dose, day 7, individual mice, 200 mg/kg) of the same compound?
**A.** 26.3 g

**Q.** What about the “Body weight change, Mean” value (PO 200 mg/kg single dose) of the same compound?
**A.** 4.87%

**Q.** And the Body weight change (PO 200 mg/kg single dose, individual mice, 200 mg/kg)?
**A.** 8.68% and 0.00% and 5.93%

**Q.** And the Clinical observation (PO 200 mg/kg, day 0, 0.5 h, individual mice)?
**A.** 0

**Q.** What about the Clinical observation (PO 200 mg/kg, day 0, 2 h, individual mice) of the same compound?
**A.** 0

**Q.** What about the Clinical observation (PO 200 mg/kg, day 0, 4 h, individual mice) of the same compound?
**A.** 0

**Q.** What about the Clinical observation (PO 200 mg/kg, day 0, 6 h, individual mice) of the same compound?
**A.** 0

**Q.** And the Clinical observation (PO 200 mg/kg, day 0, time 0, individual mice)?
**A.** 0

**Q.** What about the Clinical observation (PO 200 mg/kg, day 1, individual mice) of the same compound?
**A.** 0

**Q.** What about the Clinical observation (PO 200 mg/kg, day 2, individual mice) of the same compound?
**A.** 0

**Q.** And the Clinical observation (PO 200 mg/kg, day 3, individual mice)?
**A.** 0

**Q.** And the Clinical observation (PO 200 mg/kg, day 4, individual mice)?
**A.** 0

**Q.** What about the Clinical observation (PO 200 mg/kg, day 5, individual mice) of the same compound?
**A.** 0

**Q.** And the Clinical observation (PO 200 mg/kg, day 6, individual mice)?
**A.** 0

**Q.** And the Clinical observation (PO 200 mg/kg, day 7, individual mice)?
**A.** 0

**Q.** And the MTD at 7 days (ip, read-out: MTD, single IP dose)?
**A.** 40 mg/kg

**Q.** What about the MTD at 7 days (iv, read-out: MTD, single IV dose (not reached at maximum feasible dose)) of the same compound?
**A.** ≥ 60 mg/kg

**Q.** And the MTD at 7 days (po, read-out: MTD, single PO dose (not reached at maximum feasible dose))?
**A.** ≥ 200 mg/kg
